Results on 13 compounds are retold here after ChEMBL document CHEMBL5214906, “Novel Antiplasmodial Compounds Leveraged with Multistage Potency against the Parasite Plasmodium falciparum: In Vitro and In Vivo Evaluations and Pharmacokinetic Studies” (J Med Chem, 2021).

Active and inactive are the calls of the source. The rule behind the calls is not given here.

Data set [1] in a line: Cytotoxicity against human HepG2 cells assessed as reduction in cell viability incubated for 48 hrs by MTT assay. It counts as toxicity, cell-based. As to conditions: read-out: TC50.
Data set [2] concerns Plasmodium falciparum. Briefly: Antiplasmodial activity against Plasmodium falciparum 3D7 infected in human red blood cells assessed as inhibition of parasitemia incubated for 48 hrs by giemsa staining based light microscopic analysis. The settings on record: 3D7, Erythrocyte. It counts as functional, organism-based, Red blood cell.
Data set [3] in a line: Therapeutic index, ratio of TC50 for cytotoxicity against human HepG2 cells to IC50 for antiplasmodial activity against Plasmodium falciparum 3D7 infected in human red blood cells. It counts as toxicity, cell-based. As to conditions: read-out: TI.
Data set [4] has as its system Plasmodium falciparum. In words: Inhibition of Plasmodium falciparum plasmepsin X […] at 1 uM using DABCYL-G-PSFVEAPVRGG-EDANS as substrate by fluorescence based assay relative to control.
Data set [5] relates to Plasmodium falciparum. Briefly: Induction of mitochondrial membrane loss in Plasmodium falciparum 3D7 assessed as reduction in red-green ratio at IC50 concentration incubated for 3 hrs by JC-1 staining based spectrofluorometric analysis. It counts as functional.
The test system of data set [6] is Plasmodium falciparum. In words: Resistance index, ratio of IC50 for antiplasmodial activity against chloroquine-resistant Plasmodium falciparum RKL-9 to IC50 for antiplasmodial activity against Plasmodium falciparum 3D7. It counts as functional.
In data set [7] the test system is Plasmodium falciparum. In words: Antiplasmodial activity against Plasmodium falciparum 3D7 infected in human erythrocytes assessed as pyknotic trophozoites development at 1 to 10 uM measured for 56 hrs by giemsa staining based microscopic analysis. It counts as functional, organism-based. The settings on record: Erythrocyte, dose 1-10 µM.
Data set [8] concerns Plasmodium falciparum. In words: Antiplasmodial activity against chloroquine resistant Plasmodium falciparum RKL-9 infected in human erythrocytes assessed as inhibition of parasitemia by SYBR green-I fluorescence based spectrofluorometric analysis. Type of data set: functional, organism-based. As to conditions: RKL-9, Erythrocyte.
Data set [9] relates to Plasmodium falciparum. Briefly: Antiplasmodial activity against Plasmodium falciparum 3D7 infected in human erythrocytes assessed as delay in maturation of rings at 1 to 10 uM measured for 56 hrs by giemsa staining based microscopic analysis. The settings on record: Erythrocyte, dose 1-10 µM. Type of data set: functional, organism-based.
The next data set relates to Erythrocyte. In words: Hemolytic activity against human red blood cells upto 1600 uM incubated for 1 hrs by hemolysis assay. Type of data set: toxicity, cell-based.
In data set [10] the test system is Plasmodium berghei. In words: In vivo antimalarial activity against Plasmodium berghei ANKA strain infected in C57BL/6 mouse assessed as increase in mean survival time at 30 mg/kg, ip administered for 4 days and measured upto 30 days (reference value: 13 days). Type of data set: functional. As to conditions: time <= 30 day.
Data set [11] in a line: Inhibition of Plasmodium falciparum Plasmepsin X assessed as inhibition constant using DABCYL-G-PSFVEAPVRGG-EDANS as substrate by fluorescence based assay relative to control.
Data set [12] relates to Plasmodium berghei. Briefly: Antiplasmodial activity against firefly luciferase-expressing Plasmodium berghei liver stage infected in human Huh-7 cells assessed as inhibition of parasite growth preincubated with cells for 1 hrs followed by parasite infection and […] by bioluminescence assay. Type of data set: functional, organism-based.
Data set [13] has as its system Plasmodium berghei. In words: In vivo antimalarial activity against Plasmodium berghei ANKA infected in BALB/c mouse assessed as reduction in parasitemia at 50 mg/kg, ip administered for 4 consecutive days and measured on day 8 post-infection by geimsa staining based microscopic analysis relative to control. It counts as functional. Details: scale not given: the % may be the effect or the level left. The settings on record: time 8 day.

The subject of data set [14] is Plasmodium falciparum. Briefly: Antiplasmodial activity against Plasmodium falciparum 3D7 infected in human erythrocytes assessed as accumulation of parasite growth at late trophozoite stage at 1 to 10 uM measured after 56 hrs post-treatment by giemsa staining based microscopic analysis. It counts as functional, organism-based. As to conditions: Erythrocyte, dose 1-10 µM.

Data set [15] relates to Plasmodium berghei. Briefly: In vivo antimalarial activity against Plasmodium berghei ANKA strain infected in BALB/c mouse assessed as increase in mean survival time at 50 mg/kg, ip administered for 4 days and measured upto 30 days (reference value: 13 days). It counts as functional. As to conditions: time <= 30 day.
For data set [16], the system named is Plasmodium falciparum. In words: Antiplasmodial activity against Plasmodium falciparum 3D7 infected in human erythrocytes assessed as transition from ring to trophozoite at 1 to 10 uM measured for 56 hrs by giemsa staining based microscopic analysis. Type of data set: functional, organism-based. As to conditions: Erythrocyte, dose 1-10 µM.

`O=C(Cc1cccc(C(F)(F)F)c1)N[C@@H](Cc1ccccc1)[C@@H](O)CN1CCN(Cc2ccccc2)CC1`: the CC50 at 48 h in [1] turned out to be 990 µM. Further, the IC50 with Plasmodium falciparum [2] was determined as 1.1 µM. Moreover, the selectivity ratio in data set [3] came out at 900. This compound also came in with an inhibition in the data set with Plasmodium falciparum [4] of 13.7%.

Take `O=C(N[C@@H](Cc1ccccc1)[C@@H](O)CN1CCN(Cc2ccccc2)CC1)c1ccc(F)cc1`: the CC50 at 48 h in [1] was determined as 267 µM. Also, the figures for the IC50 in the data set with Plasmodium falciparum [2] and with Plasmodium falciparum [8] were 0.41 µM and 0.72 µM, respectively. Besides, the Ratio in the data set on Plasmodium falciparum [5] was 3.73. Moreover, the “Ratio IC50” value in the data set with Plasmodium falciparum [6] turned out to be 1.73. For the same compound, the result in the data set with Plasmodium falciparum [7] and with Plasmodium falciparum [9] was Active. In [3], the selectivity ratio was found to be 636. The same compound gave an inhibition with Plasmodium falciparum [4] of 0.92%.

Consider `CCC(C(=O)N[C@@H](Cc1ccccc1)[C@@H](O)CN1CCN(Cc2ccccc2)CC1)c1ccccc1` (stereo not given in full), for which the CC50 at 48 h in data set [1] is 1350 µM. In addition, in the data set with Plasmodium falciparum [2], the concentration for half-maximal inhibition (IC50) was 0.95 µM. In addition, the selectivity ratio in [3] is 1420. This compound also had an inhibition in the data set with Plasmodium falciparum [4] of 15.5%.

On to `O=C(Cc1ccccc1)N[C@@H](Cc1ccccc1)[C@@H](O)CN1CCN(Cc2ccccc2)CC1`, for which the CC50 at 48 h in data set [1] was determined as 305 µM. The IC50 in the data set with Plasmodium falciparum [2] was greater than 5 µM. In addition, the selectivity ratio in data set [3] was less than 61. Moreover, the inhibition with Plasmodium falciparum [4] turned out to be 6.85%.

Take `O=C(N[C@@H](Cc1ccccc1)[C@@H](O)CN1CCN(Cc2ccccc2)CC1)c1cnccn1`: the CC50 at 48 h in [1] stood at 1000 µM. Moreover, the Activity entry in the data set with Erythrocyte is recorded as “Non-Toxic”. In addition, the IC50 in the data set with Plasmodium falciparum [2] and with Plasmodium falciparum [8] was 1.26 µM in each case. In addition, in the data set on Plasmodium falciparum [5], the Ratio turned out to be 4.07. In the data set with Plasmodium falciparum [6], the “Ratio IC50” value was determined as 1. Moreover, the selectivity ratio in data set [3] is 791. For the same compound, in the data set with Plasmodium falciparum [4], the inhibition worked out at 21%.

Regarding `C[C@H]1[C@H](OC(=O)CCC(=O)O)O[C@@H]2O[C@@]3(C)CC[C@H]4[C@H](C)CC[C@@H]1[C@@]24OO3` [ARTESUNATE], in the data set on Plasmodium berghei [10], the MST turned out to be 24 days.

Take `CN1CCN(Cc2ccc(C(=O)N[C@@H](Cc3ccccc3)[C@@H](O)CN3CCN(Cc4ccccc4)CC3)cc2)CC1`: in data set [1], the CC50 at 48 h was found to be 860 µM. Besides, in the data set with Plasmodium falciparum [2], the concentration for half-maximal inhibition (IC50) turned out to be 0.97 µM. In addition, the selectivity ratio in [3] stood at 887. Also, in [11], the Ki came out at 0.91 µM. Besides, in the data set with Plasmodium falciparum [4], the inhibition came to 38.6%.

Turning to `CN1CCN(c2ccc(C(=O)N[C@@H](Cc3ccccc3)[C@@H](O)CN3CCN(Cc4ccccc4)CC3)cc2)CC1`, in data set [1], the CC50 at 48 h amounted to 189 µM. The 50% inhibitory concentration (IC50) in the data set on Plasmodium falciparum [2] was determined as 1 µM. Moreover, the selectivity ratio in data set [3] is 189. The inhibition with Plasmodium falciparum [4] was found to be 34%.

`O=C(N[C@@H](Cc1ccccc1)[C@@H](O)CN1CCN(Cc2ccccc2)CC1)c1cnc2ccccc2c1`: in [1], the CC50 at 48 h was 100 µM. For the same compound, the Activity entry in the data set on Erythrocyte was “Non-Toxic”. In addition, in the data set on Plasmodium falciparum [2], the 50% inhibitory concentration (IC50) came to 0.25 µM. For the same compound, the selectivity ratio in data set [3] is 400. This compound yielded an inhibition in the data set on Plasmodium falciparum [4] of 11.7%.

Turning to `Cc1cnc(C(=O)N[C@@H](Cc2ccccc2)[C@@H](O)CN2CCN(Cc3ccccc3)CC2)cn1`, the CC50 at 48 h in data set [1] stood at 285 µM. The Activity entry with Erythrocyte is on record as “Non-Toxic”. The 50% inhibitory concentration (IC50) in the data set with Plasmodium falciparum [2] turned out to be 1.22 µM; in the data set with Plasmodium falciparum [8], 0.79 µM. Also, the Ratio in the data set with Plasmodium falciparum [5] was 4.28. Besides, in the data set on Plasmodium falciparum [6], the “Ratio IC50” value was found to be 0.65. In data set [3], the selectivity ratio turned out to be 232. In the data set with Plasmodium falciparum [4], this compound showed an inhibition of 8.79%.

Take `O=C(CCc1ccc(Br)cc1)N[C@@H](Cc1ccccc1)[C@@H](O)CN1CCN(Cc2ccccc2)CC1`: the half-maximal inhibitory concentration (IC50) in the data set on Plasmodium berghei [12] was determined as 3.97 µM; in the data set on Plasmodium falciparum [2], 0.51 µM. Further, the CC50 at 48 h in [1] stood at 129 µM. Also, the selectivity ratio in data set [3] worked out at 252. This compound also came in with an inhibition in the data set with Plasmodium falciparum [4] of 21.5%.

In the case of `O=C(N[C@@H](Cc1ccccc1)[C@@H](O)CN1CCN(Cc2ccccc2)CC1)c1ccc(N2CCOCC2)cc1`, in data set [1], the CC50 at 48 h turned out to be 317 µM. Further, the figures for the Activity in the data set with Plasmodium berghei [13] and with Erythrocyte were 50% and “Non-Toxic”, respectively. In addition, the half-maximal inhibitory concentration (IC50) is 0.21 µM with Plasmodium falciparum [2] and 0.86 µM in the data set on Plasmodium falciparum [8]. Moreover, the Ratio in the data set on Plasmodium falciparum [5] was found to be 3.48. In addition, the “Ratio IC50” value in the data set on Plasmodium falciparum [6] amounted to 3.93. The outcome in the data set with Plasmodium falciparum [7], in the data set on Plasmodium falciparum [14], with Plasmodium falciparum [9] and in the data set on Plasmodium falciparum [16] was Active. Further, the selectivity ratio in [3] is 1450. The MST in the data set with Plasmodium berghei [15] amounted to 15 days. For the same compound, the inhibition in the data set on Plasmodium falciparum [4] was determined as 28.4%.

Turning to `Cc1ccc(OCC(=O)N[C@@H](Cc2ccccc2)[C@@H](O)CN2CCN(Cc3ccccc3)CC2)cc1`, the CC50 at 48 h in data set [1] is 200 µM. Besides, in the data set on Plasmodium falciparum [2], the half-inhibitory concentration (IC50) amounted to 0.2 µM. Besides, the selectivity ratio in [3] came to 1000. Further, in the data set on Plasmodium falciparum [4], the inhibition was 24.5%.
